Source: US6664244B1, “Pet foods” (Nihon Shokuhin Kako Co., Ltd., priority 1998, dated 2003)

Key:
beagles [1] = assay: Experiments on suppression of obesity (body weight change, high-fat feed); type: in vivo; details: healthy beagles; Hills c/d Dry 200 g + lard 117 g basic feed, corn starch replaced with 23.4 g β-CD; about 400 kcal per metabolic body weight per day; vs reference group (FIG. 1)
Procedure: Ten healthy beagles were divided in 2 groups consisting of 5, respectively. Hills c/d Dry were fed for 1 week before the experiment. As for feeds in this experiment, the one in which 200 g of Hills c/d Dry blended with 117 g of lard was used as a basic feed. In the reference group, the one in which 34 g of cornstarch was added to the above basic feed is used. In the experimental group, the feed used is the same one as used in the reference group except that all corn starch was replaced with 23.4 g of β-CD (β-cyclodextrin). The feeding amount for one dog, per day, was controlled without changing the ratio of components so that the amount of the basic feed (Hills c/d Dry and lard) is about 400 kcal per metabolic body weight (kg0.75)

beagles [2] = assay: Experiments on solution of obesity (body weight change in obese beagles); type: in vivo; details: beagles made obese by 2 months of high-energy foods; feed with 23.4 g corn starch replaced with β-CD; about 275 kcal per metabolic body weight per day (FIG. 2)
Source text: Ten beagles were fed high-energy foods for 2 months before the experiment, so that they became obese. At the beginning of the experiment, they were divided in […] so as to make uniform the average body weight of each group as much as possible. The feed used in the reference group was the same as that of Experiment 1 and the same feed in which 23.4 g of corn starch was replaced with β-CD was used in the β-CD group. The feeding amount for one dog, per day was controlled without changing the ratio of components so that the amount of the basic feed (Hills c/d Dry and lard) is about 275 kcal per metabolic body weight (kg0.75).

## OC[C@H]1O[C@@H]2O[C@H]3[C@H](O)[C@@H](O)[C@@H](O[C@H]4[C@H](O)[C@@H](O)[C@@H](O[C@H]5[C@H](O)[C@@H](O)[C@@H](O[C@H]6[C@H](O)[C@@H](O)[C@@H](O[C@H]7[C@H](O)[C@@H](O)[C@@H](O[C@H]8[C@H](O)[C@@H](O)[C@@H](O[C@H]1[C@H](O)[C@H]2O)O[C@@H]8CO)O[C@@H]7CO)O[C@@H]6CO)O[C@@H]5CO)O[C@@H]4CO)O[C@@H]3CO [β-CD, β-cyclodextrin]
Beagles [1]
  increase of body weight: significantly suppressed
Beagles [2]
  body weight: significantly reduced
